Measurements: the CheMixHub viscosity set
Several values for one entry are separate records, joined by “and”; a condition that tells them apart may be missing. Equal values may be shown once. ± gives the uncertainty stated by the source.

Test: xn = mol fraction of the nth substance listed

c1ccncc1 + Cc1ccccc1C
viscosity [mPa·s], 101 kPa
Settings	x2 = 0.1002	x2 = 0.2001	x2 = 0.2999	x2 = 0.3993	x2 = 0.4968	x2 = 0.6002	x2 = 0.6992	x2 = 0.7985	x2 = 0.8945
293.15 K	0.9083 ± 0.013	0.8811 ± 0.013	0.8575 ± 0.012	0.8434 ± 0.012	0.8268 ± 0.012	0.806 ± 0.012	0.7925 ± 0.011	0.7798 ± 0.011	0.7769 ± 0.011
303.15 K	0.7933 ± 0.011	0.7696 ± 0.011	0.7498 ± 0.011	0.7375 ± 0.011	0.721 ± 0.011	0.7069 ± 0.01	0.6976 ± 0.01	0.6881 ± 0.01	0.6804 ± 0.01
313.15 K	0.7 ± 0.01	0.6779 ± 0.01	0.6586 ± 0.0098	0.6456 ± 0.0097	0.63 ± 0.0095	0.6195 ± 0.0094	0.6097 ± 0.0093	0.6015 ± 0.0092	0.595 ± 0.0091
323.15 K	0.6145 ± 0.0093	0.5949 ± 0.0091	0.5776 ± 0.0089	0.5654 ± 0.0088	0.5525 ± 0.0086	0.5433 ± 0.0085	0.5347 ± 0.0084	0.528 ± 0.0083	0.5228 ± 0.0082

NCCNCCNCCN + O
viscosity [mPa·s]
Settings	303.15 K	313.15 K	323.15 K
100 kPa, x1 = 0.006	–	0.78 ± 0.05	–
100 kPa, x1 = 0.014	–	0.98 ± 0.06	–
100 kPa, x1 = 0.03	–	1.69 ± 0.1	–
100 kPa, x1 = 0.076	–	6.61 ± 0.41	–
101 kPa, x1 = 0.0299	2.243 ± 0.23	1.716 ± 0.17	1.359 ± 0.14
101 kPa, x1 = 0.0502	5.399 ± 0.54	3.454 ± 0.35	2.481 ± 0.25
101 kPa, x1 = 0.0759	11.81 ± 1.2	7.786 ± 0.78	5.213 ± 0.52
101 kPa, x1 = 0.1097	22.1 ± 2.2	13.05 ± 1.3	8.624 ± 0.86
101 kPa, x1 = 0.156	38.42 ± 3.8	22.22 ± 2.2	14.34 ± 1.4
101 kPa, x1 = 0.2233	60.39 ± 6	32.27 ± 3.2	20.32 ± 2
101 kPa, x1 = 0.3302	82.48 ± 8.3	42.63 ± 4.3	26.01 ± 2.6
101 kPa, x1 = 0.5259	75.67 ± 7.6	38.19 ± 3.8	21.84 ± 2.2
101 kPa, x1 = 0.7007	50.89 ± 5.1	27.24 ± 2.7	15.21 ± 1.5
101 kPa, x1 = 0.7994	39.76 ± 4	21.64 ± 2.2	12.67 ± 1.3
101 kPa, x1 = 0.9242	31.35 ± 3.1	16.13 ± 1.6	10.61 ± 1.1

CC(O)CCO (stereo not drawn) + CN1CCCC1=O
308.15 K, 101 kPa
Settings	viscosity [mPa·s]
x1 = 0.0282	1.736 ± 0.013
x1 = 0.0582	1.864 ± 0.014
x1 = 0.1089	2.153 ± 0.017
x1 = 0.2015	2.678 ± 0.02
x1 = 0.3004	3.197 ± 0.024
x1 = 0.4043	4.211 ± 0.032
x1 = 0.4985	6.742 ± 0.049
x1 = 0.5972	9.628 ± 0.068
x1 = 0.7036	14.66 ± 0.1
x1 = 0.798	22.77 ± 0.16
x1 = 0.9029	34.77 ± 0.24
x1 = 0.94	43.52 ± 0.3
x1 = 0.9796	51.25 ± 0.29

CCCCCCn1cc[n+](C)c1.[Cl][Fe-]([Cl])([Cl])[Cl] + CCOC(C)=O
viscosity [mPa·s], 101 kPa
Settings	x1 = 0.093	x1 = 0.1851	x1 = 0.2815	x1 = 0.377	x1 = 0.4719	x1 = 0.5799	x1 = 0.6752	x1 = 0.7764	x1 = 0.8869
293.15 K	1.14 ± 0.05	2.3 ± 0.09	4.29 ± 0.18	7.45 ± 0.31	11.71 ± 0.48	18.13 ± 0.75	26.64 ± 1.1	36.57 ± 1.5	51.89 ± 2.1
298.15 K	1.07 ± 0.04	2.11 ± 0.09	3.87 ± 0.16	6.62 ± 0.27	10.22 ± 0.42	15.53 ± 0.64	22.42 ± 0.93	30.27 ± 1.3	42.15 ± 1.8
303.15 K	1.01 ± 0.04	1.95 ± 0.08	3.51 ± 0.14	5.93 ± 0.24	9.02 ± 0.37	13.48 ± 0.56	19.08 ± 0.79	25.46 ± 1.1	34.86 ± 1.5
308.15 K	0.95 ± 0.04	1.8 ± 0.07	3.2 ± 0.13	5.34 ± 0.22	8.01 ± 0.33	11.79 ± 0.49	16.45 ± 0.68	21.68 ± 0.9	29.26 ± 1.2
313.15 K	0.89 ± 0.04	1.68 ± 0.07	2.93 ± 0.12	4.84 ± 0.2	7.18 ± 0.3	10.4 ± 0.43	14.33 ± 0.59	18.64 ± 0.77	24.83 ± 1
318.15 K	0.85 ± 0.04	1.57 ± 0.06	2.7 ± 0.11	4.42 ± 0.18	6.46 ± 0.27	9.26 ± 0.38	12.6 ± 0.52	16.23 ± 0.67	21.38 ± 0.89
323.15 K	0.8 ± 0.03	1.47 ± 0.06	2.5 ± 0.1	4.05 ± 0.17	5.85 ± 0.24	8.3 ± 0.34	11.15 ± 0.46	14.24 ± 0.59	18.51 ± 0.77

c1c[nH]cn1 + CCCC[N+](CCCC)(CCCC)CCCC.[Br-]
101.3 kPa, x2 = 0.3
Settings	viscosity [mPa·s]
293.15 K	810 ± 180
296.15 K	540 ± 120
303.15 K	314 ± 66
313.15 K	144.8 ± 30
323.15 K	75 ± 15

CCCCCCCCCC(=O)O + CCCCCCCCCCCCCCCCC
100 kPa, x2 = 0.5591
Settings	viscosity [mPa·s]
298.2 K	4.83 ± 0.29
308.2 K	3.6 ± 0.22
318.2 K	2.77 ± 0.17

CCCCCCC(C)O (stereo not drawn) + CCCCCCCCCCCCCC
298.15 K, 101 kPa
Settings	viscosity [mPa·s]
x1 = 0.0003	2.081 ± 0.016
x2 = 0.0555	5.619 ± 0.052
x2 = 0.0999	5.163 ± 0.047
x2 = 0.1555	4.632 ± 0.041
x2 = 0.1998	4.238 ± 0.037
x2 = 0.2554	3.786 ± 0.032
x2 = 0.2998	3.455 ± 0.029
x2 = 0.3555	3.081 ± 0.025
x2 = 0.3999	2.813 ± 0.022
x2 = 0.4554	2.519 ± 0.02
x2 = 0.4999	2.314 ± 0.018
x2 = 0.5555	2.098 ± 0.016
x2 = 0.5998	1.957 ± 0.015
x2 = 0.6554	1.82 ± 0.014
x2 = 0.7	1.741 ± 0.013
x2 = 0.7555	1.683 ± 0.013
x2 = 0.8	1.668 ± 0.013
x2 = 0.8555	1.688 ± 0.013
x2 = 0.9	1.736 ± 0.013
x2 = 0.9553	1.835 ± 0.014

c1ccncc1 + CCC(C)=O
100 kPa
Settings	viscosity [mPa·s]
308.15 K, x1 = 0.1006	0.3835 ± 0.0061
313.15 K, x1 = 0.597	0.5265 ± 0.0074
323.15 K, x1 = 0.4004	0.4095 ± 0.0063

CC(=O)[O-].C[N+](C)(C)CCO + O
Settings	viscosity [mPa·s]
298 K, 101.33 kPa, x2 = 0.8	30.5

Cl.NNC(N)=O + O
viscosity [mPa·s], 101 kPa
Settings	293.15 K	298.15 K	303.15 K	308.15 K	313.15 K	318.15 K
x1 = 0.000452	1.008 ± 0.022	0.8953 ± 0.019	0.8016 ± 0.017	0.7228 ± 0.016	–	0.6 ± 0.013
x1 = 0.000904	1.014 ± 0.022	0.9003 ± 0.019	0.8058 ± 0.017	0.7263 ± 0.016	0.6589 ± 0.014	0.6026 ± 0.013
x1 = 0.00135	–	0.9052 ± 0.019	0.81 ± 0.017	0.7299 ± 0.016	0.6619 ± 0.014	0.6051 ± 0.013
x1 = 0.001798	–	0.9101 ± 0.02	0.8142 ± 0.018	–	–	0.6077 ± 0.013
x1 = 0.002249	–	0.915 ± 0.02	0.8183 ± 0.018	0.737 ± 0.016	0.6679 ± 0.014	0.6102 ± 0.013
x1 = 0.00269	1.037 ± 0.022	0.9199 ± 0.02	0.8224 ± 0.018	0.7404 ± 0.016	0.6708 ± 0.015	0.6127 ± 0.013
x1 = 0.003585	1.049 ± 0.023	0.9296 ± 0.02	0.8306 ± 0.018	0.7475 ± 0.016	0.6767 ± 0.015	0.6176 ± 0.013
x1 = 0.004482	1.06 ± 0.023	0.9395 ± 0.02	0.8389 ± 0.018	0.7543 ± 0.016	0.6826 ± 0.015	0.6226 ± 0.013
x1 = 0.005372	1.072 ± 0.023	0.9492 ± 0.021	0.8472 ± 0.018	0.7612 ± 0.016	0.6884 ± 0.015	0.6275 ± 0.013
x1 = 0.006264	1.083 ± 0.023	0.959 ± 0.021	0.8554 ± 0.018	0.7682 ± 0.017	0.6944 ± 0.015	0.6324 ± 0.014
x1 = 0.007149	1.095 ± 0.024	0.9687 ± 0.021	0.8637 ± 0.019	0.775 ± 0.017	0.7001 ± 0.015	0.6373 ± 0.014

CCCCCCC(C)O (stereo not drawn) + CCCCCCCCCCCC
298.15 K, 101 kPa
Settings	viscosity
x1 = 0.0003	1.337 ± 0.011 mPa·s
x2 = 0.0554	5.513 ± 0.051 mPa·s and 5.51 ± 0.07 mPa·s
x2 = 0.0999	4.916 ± 0.045 mPa·s and 4.92 ± 0.07 mPa·s
x2 = 0.1554	4.254 ± 0.037 mPa·s and 4.25 ± 0.07 mPa·s
x2 = 0.1998	3.786 ± 0.032 mPa·s and 3.79 ± 0.06 mPa·s
x2 = 0.2555	3.272 ± 0.027 mPa·s and 3.27 ± 0.06 mPa·s
x2 = 0.2998	2.916 ± 0.023 mPa·s and 2.92 ± 0.06 mPa·s
x2 = 0.3554	2.532 ± 0.02 mPa·s and 2.53 ± 0.06 mPa·s
x2 = 0.3998	2.27 ± 0.018 mPa·s and 2.27 ± 0.06 mPa·s
x2 = 0.4554	1.995 ± 0.015 mPa·s and 2 ± 0.06 mPa·s
x2 = 0.4999	1.813 ± 0.014 mPa·s and 1.81 ± 0.06 mPa·s
x2 = 0.5555	1.627 ± 0.013 mPa·s and 1.63 ± 0.06 mPa·s
x2 = 0.5998	1.508 ± 0.012 mPa·s and 1.51 ± 0.06 mPa·s
x2 = 0.6555	1.391 ± 0.011 mPa·s and 1.39 ± 0.06 mPa·s
x2 = 0.6998	1.32 ± 0.011 mPa·s and 1.32 ± 0.06 mPa·s
x2 = 0.7554	1.253 ± 0.01 mPa·s and 1.25 ± 0.06 mPa·s
x2 = 0.7998	1.213 ± 0.01 mPa·s and 1.21 ± 0.06 mPa·s
x2 = 0.8555	1.176 ± 0.01 mPa·s and 1.18 ± 0.06 mPa·s
x2 = 0.8999	1.152 ± 0.01 mPa·s and 1.15 ± 0.06 mPa·s
x2 = 0.9555	1.124 ± 0.009 mPa·s and 1.12 ± 0.06 mPa·s

c1ccncc1 + c1ccccc1
viscosity [mPa·s], 101 kPa
Settings	x1 = 0.3943	x1 = 0.5905	x1 = 0.7944	x1 = 0.8965	x2 = 0.2	x2 = 0.4	x2 = 0.6	x2 = 0.8
293.15 K	–	–	–	–	0.893 ± 0.015	0.832 ± 0.014	0.77 ± 0.013	0.709 ± 0.012
298.15 K	0.7169 ± 0.012	0.7726 ± 0.013	0.8345 ± 0.013	0.8601 ± 0.014	–	–	–	–
313.15 K	–	–	–	–	0.678 ± 0.012	0.632 ± 0.011	0.585 ± 0.01	0.538 ± 0.009
